US9440971B2, “Solid state forms of vemurafenib hydrochloride” (ratiopharm GmbH, priority 2013, dated 2016)
Where a name gives a salt, the structure may show the parent alone. Read-outs that look alike come from different tables or passages of the source.

Tests used:
[1] = conditions not given; cited from earlier work
[2] = as observed in WO 2010/114928 and WO 2010/129570; cited from earlier work
[3] = Storage stability of the crystalline form at controlled temperature and relative humidity; assay type: physicochemical; conditions: up to at least 24 weeks, hydrochloride
Excerpt: Particularly, crystalline Vemurafenib HCl form II has high chemical purity and excellent stability properties. […] Therefore, the crystalline Vemurafenib HCl form II may be used to prepare an oral formulation which is stable and has a relatively small tablet or capsule size as the molar ratio of Vemurafenib to HCl is about 1:1, which is highly advantageous for preparing pharmaceutical compositions with high drug load.

Solubility = assay type: physicochemical
[4] = 25° C. and 60% relative humidity (RH)

CCCS(=O)(=O)Nc1ccc(F)c(C(=O)c2c[nH]c3ncc(-c4ccc(Cl)cc4)cc23)c1F [Amorphous Vemurafenib]
stability of amorphous form [1]: not stable

CCCS(=O)(=O)Nc1ccc(F)c(C(=O)c2c[nH]c3ncc(-c4ccc(Cl)cc4)cc23)c1F [Vemurafenib, propane-1-sulfonic acid {3-[5-(4-chlorophenyl)-1H-pyrrolo[2,3-b]pyridine-3-carbonyl]-2,4-difluoro-phenyl}-amide]
solubility [2]: extremely low solubility

CCCS(=O)(=O)Nc1ccc(F)c(C(=O)c2c[nH]c3ncc(-c4ccc(Cl)cc4)cc23)c1F [crystalline Vemurafenib HCl form I, Vemurafenib hydrochloride]
stability upon storage [3, 4]: converts to Vemurafenib free base
stability upon storage ([3]; 30° C./65% RH): converts to Vemurafenib free base

CCCS(=O)(=O)Nc1ccc(F)c(C(=O)c2c[nH]c3ncc(-c4ccc(Cl)cc4)cc23)c1F [crystalline Vemurafenib HCl form II, Vemurafenib hydrochloride]
solubility (Solubility): good solubility
stability upon storage [3, 4]: stable
stability upon storage ([3]; 30° C./65% RH): stable
